Patent publication US12600726B2, “Antagonists of the muscarinic acetylcholine receptor M4” (Vanderbilt University, priority 2017, dated 2026)
pIC50: −log10 of the molar value.

Experiments:
Rat M4 = target: T1, Rat M4 (Rattus norvegicus, UniProt P08485); test: mAChR M4 cell-based functional calcium flux assay (rat M4/Gqi5/CHO cells); conditions: for Emin (rat M4): % ACh maximum at 30 μM; for pIC50: decrease of the response to an EC80 concentration of acetylcholine; for IC50: cells printed in μM, decrease of the EC80 acetylcholine response
T1 construct: expressed in transfected cells; host or cells: CHO-K1 (ATCC), stably expressing M4 and Gqi5
T1 sequence (P08485 1-478): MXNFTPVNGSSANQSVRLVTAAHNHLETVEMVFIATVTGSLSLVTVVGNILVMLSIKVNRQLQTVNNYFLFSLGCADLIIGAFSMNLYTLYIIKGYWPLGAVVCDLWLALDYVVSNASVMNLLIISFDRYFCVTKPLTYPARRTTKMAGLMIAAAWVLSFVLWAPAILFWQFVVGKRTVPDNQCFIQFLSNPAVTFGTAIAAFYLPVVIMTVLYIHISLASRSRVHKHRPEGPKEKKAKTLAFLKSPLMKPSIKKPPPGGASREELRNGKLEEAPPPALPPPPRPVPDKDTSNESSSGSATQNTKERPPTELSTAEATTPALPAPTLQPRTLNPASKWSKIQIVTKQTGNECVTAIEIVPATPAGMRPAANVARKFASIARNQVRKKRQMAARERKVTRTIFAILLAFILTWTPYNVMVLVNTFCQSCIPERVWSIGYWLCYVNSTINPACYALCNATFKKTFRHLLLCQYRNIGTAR
Procedure: (§1) Human, rat, or mouse M4. cDNA, along with the chimeric G protein Gqi5, were transfected into Chinese hamster ovary (CHO-K1) cells purchased from the American Type Culture Collection using Lipofectamine2000. M4/Gqi5/CHO cells were grown in Ham's F-12 medium containing 10% heat-inactivated fetal bovine serum (FBS), 20 mM HEPES, 500 μg/mL G418 sulfate, and 200 μg/mL Hygromycin B.
(§2) For high throughput measurement of agonist-evoked increases in intracellular calcium, CHO-K1 cells stably expressing muscarinic receptors were plated in growth medium lacking G418 and hygromycin at 15,000 cells/20 μL/well in Greiner 384-well black-walled, tissue culture (TC)-treated, clear-bottom plates (VWR). Cells were incubated overnight at 37° C. and 5% CO2. The next day, cells were washed using an ELX 405 (BioTek) with assay buffer; the final volume was then aspirated to 20 μL. Next, 20 μL of a 2.3 μM stock of Fluo-4/acetoxymethyl ester (Invitrogen, Carlsbad, CA), prepared as a 2.3 mM stock in DMSO and mixed in a 1:1 ratio with 10% (w/v) Pluronic F-127 and diluted in assay buffer, was added to the wells and the cell plates were incubated for 50 min at 37° C. and 5% CO2. Dye was removed by washing with the ELX 405 and the final volume was aspirated to 20 μL. Compound master plates were formatted in a 10 point concentration-response curve (CRC) format (1:3 dilutions) in 100% DMSO with a starting concentration of 10 or 1 mM using a BRAVO liquid handler (Agilent). Test compound CRCs were then transferred to daughter plates (240 nL) using the Echo acoustic plate reformatter (Labcyte, Sunnyvale, CA) and then diluted into assay buffer (40 μL) to a 2× stock using a Thermo Fisher Combi (Thermo Fisher Scientific, Waltham, MA).
(§3) Calcium flux was measured using the Functional Drug Screening System (FDSS) 6000 or 7000 (Hamamatsu Corporation, Tokyo, Japan) as an increase in the fluorescent static ratio. Compounds were applied to cells (20 μL, 2×) using the automated system of the FDSS at 2 seconds into the protocol and the data were collected at 1 Hz. At 143 s, 10 μL of an EC20 concentration of the muscarinic receptor agonist acetylcholine was added (5×), followed by the addition of 12 μL of an EC80 concentration of acetylcholine at the 268 s time point (5×). Agonist activity was analyzed as a concentration-dependent increase in calcium mobilization upon compound addition. Positive allosteric modulator activity was analyzed as a concentration-dependent increase in the EC20 acetylcholine response. Antagonist activity was analyzed as a concentration-dependent decrease in the EC80 acetylcholine response; for the purposes of the tables herein, an IC50 (inhibitory concentration 50) was calculated as a concentration-dependent decrease of the response elicited by an EC80 concentration of acetylcholine. Concentration-response curves were generated using a four-parameter logistical equation in XLFit curve fitting software (IDBS, Bridgewater, NJ) for Excel (Microsoft, Redmond, WA) or Prism (GraphPad Software, Inc., San Diego, CA) or the Dotmatics software platform (Dotmatics, Bishop's Stortford, UK).
(§4) Compounds were synthesized as described above. Activity (IC50 and Emin) was determined in the mAChR M4 cell-based functional assay as described above and the data are shown in Table 2 and Table 3. The compound number corresponds to the compound numbers used in the examples and Tables 1 and 1.1.

Human M4 = target: T2, Human M4 (Homo sapiens, UniProt P08173); test: mAChR M4 cell-based functional calcium flux assay (human M4/Gqi5/CHO cells); conditions: for Emin (human M4): % ACh maximum at 30 μM; for pIC50: decrease of the response to an EC80 concentration of acetylcholine
T2 construct: expressed in transfected cells; host or cells: CHO-K1 (ATCC), stably expressing M4 and Gqi5
T2 sequence (P08173 1-479): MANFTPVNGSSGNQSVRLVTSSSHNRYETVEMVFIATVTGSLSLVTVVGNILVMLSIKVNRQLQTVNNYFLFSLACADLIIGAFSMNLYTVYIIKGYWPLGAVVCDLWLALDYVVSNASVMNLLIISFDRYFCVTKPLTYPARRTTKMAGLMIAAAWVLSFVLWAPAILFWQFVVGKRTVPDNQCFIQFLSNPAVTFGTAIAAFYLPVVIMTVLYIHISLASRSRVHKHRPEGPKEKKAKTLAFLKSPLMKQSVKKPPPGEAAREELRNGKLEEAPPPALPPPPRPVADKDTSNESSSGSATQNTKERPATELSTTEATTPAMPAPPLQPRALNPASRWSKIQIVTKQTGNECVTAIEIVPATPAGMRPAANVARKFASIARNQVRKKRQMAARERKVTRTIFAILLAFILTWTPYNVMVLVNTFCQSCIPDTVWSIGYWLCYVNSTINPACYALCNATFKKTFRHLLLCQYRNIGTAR
Procedure: as §1, §2, §3, §4

Row | Compound | Emin (rat M4) (Rat M4) [%] | pIC50 (Rat M4) | Emin (human M4) (Human M4) [%] | pIC50 (Human M4) | IC50 (Rat M4) [µM]
1 | Fc1ccc(Cl)c(-c2ccc(NCC3CC34CCN(Cc3ncccc3C(F)(F)F)CC4)nn2)c1 (stereo not shown) [Compound 1, 6-(2-chloro-5-fluorophenyl)-N-((6-((3-(trifluoromethyl)pyridin-2-yl)methyl)-6-azaspiro[2.5]octan-1-yl)methyl)pyridazin-3-amine] | 2.75 | 5.94 | 2.74 | 7.13 | –
2 | Cc1cnn(C)c1-c1ccc(NCC2CC23CCN(CCC2CCCO2)CC3)nn1 (stereo not shown) [Compound 4, 6-(1,4-dimethyl-1H-pyrazol-5-yl)-N-((6-(2-(tetrahydrofuran-2-yl)ethyl)-6-azaspiro[2.5]octan-1-yl)methyl)pyridazin-3-amine] | 26.5 | – | – | – | > 10
3 | Cc1cnn(C)c1-c1ccc(NC(=O)C2CC23CCN(CCC(C)(C)C)CC3)nn1 (stereo not shown) [Compound 5, N-(6-(1,4-dimethyl-1H-pyrazol-5-yl)pyridazin-3-yl)-6-(3,3-dimethylbutyl)-6-azaspiro[2.5]octane-1-carboxamide] | 18.7 | 5.24 | 5.53 | 5.77 | –
4 | Cc1cnn(C)c1-c1ccc(NC(=O)C2CC23CCN(CC(C)C(C)(C)C)CC3)nn1 (stereo not shown) [Compound 7, N-[6-(2,4-dimethylpyrazol-3-yl)pyridazin-3-yl]-6-(2,3,3-trimethylbutyl)-6-azaspiro[2.5]octane-2-carboxamide] | 22.7 | – | 6.29 | 5.65 | > 10
5 | Cc1cnn(C)c1-c1ccc(NC(=O)C2CC23CCN(CC2CC4C=CC2C4)CC3)nn1 (stereo not shown) [Compound 8, 6-(5-bicyclo[2.2.1]hept-2-enylmethyl)-N-[6-(2,4-dimethylpyrazol-3-yl)pyridazin-3-yl]-6-azaspiro[2.5]octane-2-carboxamide] | 10.8 | 5.44 | 65.0 | 6.03 | –
6 | Cc1cnn(C)c1-c1ccc(NCC2CC23CCN(CC2CCOCC2)CC3)nn1 (stereo not shown) [Compound 74, 6-(2,4-dimethylpyrazol-3-yl)-N-[[6-(tetrahydropyran-4-ylmethyl)-6-azaspiro[2.5]octan-2-yl]methyl]pyridazin-3-amine] | 29.9 | – | – | – | > 10
7 | Fc1ccc(Cl)c(-c2ccc(OCC3CC34CCN(CC3CCCCC3)CC4)nn2)c1 (stereo not shown) [Compound 87, 2-[[6-(2-chloro-5-fluoro-phenyl)pyridazin-3-yl]oxymethyl]-6-(cyclohexylmethyl)-6-azaspiro[2.5]octane] | 3 | 5.98 | – | – | –
8 | Cc1ccc(/C=C/c2ccc(NCC3CC34CCN(CCC(C)(C)C)CC4)nn2)cc1 (stereo not shown) [Compound 92, N-[[6-(3,3-dimethylbutyl)-6-azaspiro[2.5]octan-2-yl]methyl]-6-[(E)-2-(p-tolyl)vinyl]pyridazin-3-amine] | 4 | 6.00 | – | – | –
9 | CC(=O)Nc1ccc(-c2ccc(NC[C@H]3CC34CCN(CC3CCCCC3)CC4)nn2)cc1 [Compound 125, N-[4-[6-[[(2S)-6-(cyclohexylmethyl)-6-azaspiro[2.5]octan-2-yl]methylamino]pyridazin-3-yl]phenyl]acetamide] | – | – | 4 | 6.95 | –

Next, values leading:

Row | Emin (rat M4) (Rat M4) [%] | pIC50 (Rat M4) | Emin (human M4) (Human M4) [%] | pIC50 (Human M4) | IC50 (Rat M4) [µM] | Compound
10 | 3.35 | 6.80 | 2.54 | 7.37 | – | CC(C)(C)CCN1CCC2(CC1)CC2CNc1ccc(-c2ccc(F)cc2)nn1 (stereo not shown) [Compound 2, N-((6-(3,3-Dimethylbutyl)-6-azaspiro[2.5]octan-1-yl)methyl)-6-(4-fluorophenyl)pyridazin-3-amine]
11 | 7.69 | 6.13 | 3.52 | 7.36 | – | Cc1nn(C)cc1-c1ccc(NCC2CC23CCN(C[C@H]2C[C@@H]4CC[C@H]2O4)CC3)nn1 (stereo partly drawn) [Compound 3, N-((6-(((1R,2R,4S)-7-Oxabicyclo[2.2.1]heptan-2-yl)methyl)-6-azaspiro[2.5]octan-1-yl)methyl)-6-(1,3-dimethyl-1H-pyrazol-4-yl)pyridazin-3-amine]
12 | 3.97 | 6.50 | 3.87 | 6.99 | – | Cc1nn(C)cc1-c1ccc(NCC2CC23CCN(CCC(C)(C)C)CC3)nc1 (stereo not shown) [Compound 6, N-[[6-(3,3-dimethylbutyl)-6-azaspiro[2.5]octan-2-yl]methyl]-5-(1,3-dimethylpyrazol-4-yl)pyridin-2-amine]
13 | 3.98 | 7.92 | – | – | – | Cc1nn(C)cc1-c1ccc(NCC2CC23CCN(CC2CC4C=CC2C4)CC3)nn1 (stereo not shown) [Compound 9, N-[[6-(5-bicyclo[2.2.1]hept-2-enylmethyl)-6-azaspiro[2.5]octan-2-yl]methyl]-6-(1,3-dimethylpyrazol-4-yl)pyridazin-3-amine]
14 | 3.57 | 7.32 | – | – | – | Cc1nn(C)cc1-c1ccc(NCC2CC23CCN(CC(C)C(C)(C)C)CC3)nn1 (stereo not shown) [Compound 10, 6-(1,3-dimethylpyrazol-4-yl)-N-[[6-(2,3,3-trimethylbutyl)-6-azaspiro[2.5]octan-2-yl]methyl]pyridazin-3-amine]
15 | 2.40 | 6.66 | 2.15 | 7.41 | – | CC(CN1CCC2(CC1)CC2CNc1ccc(-c2cc(F)ccc2Cl)nn1)C(C)(C)C (stereo not shown) [Compound 12, 6-(2-chloro-5-fluoro-phenyl)-N-[[6-(2,3,3-trimethylbutyl)-6-azaspiro[2.5]octan-2-yl]methyl]pyridazin-3-amine]
16 | 3 | 6.54 | – | – | – | CC(C)(C)CCN1CCC2(CC1)CC2COc1ccc(-c2cc(F)ccc2Cl)nn1 (stereo not shown) [Compound 77, 1-(((6-(2-chloro-5-fluorophenyl)pyridazin-3-yl)oxy)methyl)-6-(3,3-dimethylbutyl)-6-azaspiro[2.5]octane]
17 | 5 | 6.46 | – | – | – | CC(C)(C)CCN1CCC2(CC1)CC2CNc1ccc(C2=CCCC2)nn1 (stereo not shown) [Compound 90, 6-(cyclopenten-1-yl)-N-[[6-(3,3-dimethylbutyl)-6-azaspiro[2.5]octan-2-yl]methyl]pyridazin-3-amine]
18 | 5 | 6.39 | – | – | – | CC(C)(C)/C=C/c1ccc(NCC2CC23CCN(CCC(C)(C)C)CC3)nn1 (stereo not shown) [Compound 91, 6-[(E)-3,3-dimethylbut-1-enyl]-N-[[6-(3,3-dimethylbutyl)-6-azaspiro[2.5]octan-2-yl]methyl]pyridazin-3-amine]
